Measurements as given in patent US11999782B2, “Therapeutic agents for the treatment of diseases associated with undesired cell proliferation” (Fundació Privada Institutció Catalana de Recerca I Estudis …, priority 2009, dated 2024).

Tested on: LIF expression in normal human neuroprogenitors
Experiment: LIF mRNA in neurospheres of normal human neuroprogenitors
Assay type: cell-based
Settings: 100 pM, 3 hours, compared with GBM neurospheres
Description: FIG. 8. Effect of TGFβ on the capacity of self-renewal of normal human neuroprogenitors. (A) Immunocytochemistry of the indicated markers was performed in human neuroprogenitor neurospheres. (B) Neurospheres of the sample of GBM1 and of human neuroprogenitors were incubated with the indicated members of the 100 pM TGFβ family for 3 hours and the mRNA levels of LIF were determined. (C, D) Neurosphere cells of normal human neuroprogenitors were incubated in the same conditions that have been described above in FIG. 1D in the presence of 100 pM TGFβ1 or 20 ng/ml LIF for 7 days and the number of newly formed neurospheres (C) and the number total of cells (D) were determined.
The U373MG and A172 cells were a generous gift from J. Rich and D. Bigner and were cultured in DMEM with 10% fetal bovine serum (FBS). The primary culture of tumor cells (PCTC) and the GBM neurospheres were generated as described (Bruna et al., (2007) Cancer Cell 11, 147-160; Gunther et al., (2008) Oncogene. May 1; 27(20):2897-909). Briefly, the samples of tumors were processed in the 30 minutes after the surgical resection. The ground pieces of the samples of human gliomas were digested with 200 U/ml collagenase I (Sigma) and 500 U/ml of DNase I (Sigma) in PBS for 2 hours at 37° C. and with constant vigorous stirring. The suspension of individual cells was filtered through a 70 μm cell filter (BD Falcon) and washed with PBS. […]
qRT-PCR was performed using Taqman probes from Applied Biosystems, according to the manufacturer's recommendations. The reactions were carried out in a ABI 7000 sequence detector (Perkin Elmer) and the results were expressed as the fold change calculated by means of the DDCt method relative to the control sample or the first quantified sample. […]
It was decided to assess whether this effect was specific to tumor cells or was also present in normal neuroprogenitor cells. […] First, it was determined if TGFβ induced LIF in normal human neuroprogenitors. […]

In the case of “TGFβ: TGFβ1 (R&D Systems), used at 100 pM according to the figure legends”, the “induction of LIF mRNA in normal human neuroprogenitor neurospheres” value is reported as “did not induce LIF”.
